Molecular target: T1, Chymotrypsin-like elastase family member 2A (Sus scrofa) (UniProt P08419)
T1 sequence (whole entry): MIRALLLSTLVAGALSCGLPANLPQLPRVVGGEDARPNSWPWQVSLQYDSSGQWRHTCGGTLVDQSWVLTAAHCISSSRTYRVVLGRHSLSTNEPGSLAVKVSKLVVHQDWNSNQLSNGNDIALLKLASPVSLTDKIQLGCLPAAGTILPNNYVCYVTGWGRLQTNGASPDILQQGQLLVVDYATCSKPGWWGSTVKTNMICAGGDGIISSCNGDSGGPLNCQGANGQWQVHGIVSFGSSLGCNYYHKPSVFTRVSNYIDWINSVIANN
Test: Effective dose for inhibition of the porcine Pancreatic elastase

CC(C)C/C=C/[C@](C)(O)[C@H]1CC[C@H]2[C@@H]3CC(=O)[C@H]4CC(=O)CC[C@]4(C)[C@H]3CC[C@@]21C
ED50: 100 µM
